No end group written: not given here.
Key:
[1] = tested on: hsKir6.2+maSUR1 KATP channel; assay: Whole-cell patch clamp of KATP channel currents in transfected FreeStyle 293-F cells; type: cell-based, Homo sapiens (Kir6.2) / Mesocricetus auratus (SUR1); settings: 1 μM toxin; whole-cell patch clamp at −40 mV; 5 mM BaCl2 baseline; result in words (Fig. 1A, 3H, 5B)
Experimental: KATP constructs were transfected into FreeStyle 293-F cells using polyethylenimine at a cell density of 1 × 10^6 cells/ml. Cells were cultured in FreeStyle 293 Expression Medium with 1% fetal bovine serum for 24 h before recording. Currents were recorded using whole-cell mode at −40 mV in the pipette and an Axon-patch 200B amplifier (Axon Instruments, USA). Patch electrodes were pulled by a horizontal microelectrode puller (P-1000, Sutter Instrument Co, USA) to tip resistance of 2.0 to 3.0 MΩ. Pipette solution containing 107 mM KCl, 1.2 mM MgCl2, 1 mM CaCl2, 10 mM EGTA, 5 mM Hepes (pH 7.2, KOH), and bath solution containing 40 mM KCl, 100 mM NaCl, 2.6 mM CaCl2, 1.2 mM MgCl2, and 5 mM Hepes (pH 7.4, NaOH) were used for measuring inhibitory effect of wild-type and mutant toxins. Application of 5 mM BaCl2 in bath solution was used to block the KATP currents to determine the baseline. Data analysis was carried out using GraphPad Prism 8.0 or 10.4.0.

cryo-EM structure = target: the molecule itself; assay: cryo-EM structure

## Sm3a: toxin from the centipede Scolopendra morsitans (P0DQC2.1), recombinantly expressed; novel KATP channel blocker (AKKEIPYKRQKFPKKSQCIEACANALTNGDKSKITDVKSRFYKCICYYNP; also: two disulfide bonds, pairing not given here for this toxin)
[1]
  Inhibition of whole-cell KATP current: strongly blocks currents

B1: human Kir6.2 (Q52E) subunit of the cleaved KATP fusion protein (natural protein)
chain: GPLSRKGIIPEEYVLTRLAEDPAKPRYRARQRRARFVSKKGNCNVAHKNIREEGRFLQDVFTTLVDLKWPHTLLIFTMSFLCSWLLFAMAWWLIAFAHGDLAPSEGTAEPCVTSIHSFSSAFLFSIEVQVTIGFGGRMVTEECPLAILILIVQNIVGLMINAIMLGCIFMKTAQAHRRAETLIFSKHAVIALRHGRLCFMLRVGDLRKSMIISATIHMQVVRKTTSPEGEVVPLHQVDIPMENGVGGNSIFLVAPLIIYHVIDANSPLYDLAPSDLHHHQDLEIIVILEGVVETTGITTQARTSYLADEILWGQRFVPIVAEEDGRYSVDYSKFGNTVKVPTPLCTARQLDEDHSLLEALTLASARGPLRKRSVPMAKAKPKFSISPDSLS
notes: also called hsKir6.2; hsKir6.2 (Q52E)
cryo-EM structure
  stoichiometry N: 4
